In general, inhibition refers to how much of the control response was suppressed. A high value points to strong suppression.

One test deals with Pythium ultimum. The test can be described thus: Fungitoxicity against Pythium ultimum (mycelial dry weight growth in liquid asparagine-sucrose broth). It is filed as cell-based. The conditions noted are these: Globisporangium ultimum; 100 ppm of the compound; 48 hours at 25 °C; increase in mycelial dry weight compared to controls. How it is done: Compounds were tested for fungitoxicity against Pythium ultimum according to the procedures set forth below.
Test compounds were dissolved in dimethylsulfoxide at 20 mg/ml and 0.1 ml was added to 19.9 ml of a liquid asparagine-sucrose broth, prepared according to the method described in Erwin, D.C., and Katznelson, K., Canadian Journal of Microbiology 7, 15 (1971), in 9 cm petri dishes to give a concentration of 100 ppm of the compound. Each plate was inoculated with a mycelial plug, 7 mm in diameter, taken from the growing edge of a culture of Pythium ultimum grown on potato dextrose agar. Two replicate plates were used for each treatment. After growth for 48 hours at 25 °C with shaking on a gyrotary shaker at 60 rpm, the increase in mycelial dry weight was determined. Fungitoxicity was recorded as percent inhibition of growth as compared to controls lacking the test compounds. 2.

For another test, the system named is Plasmopara viticola. To be noted: in vivo.
Another test concerns Phytophthora infestans. The class given is in vivo. To be noted: Rate 300 ppm; tomato seedlings; evaluated 6 days after inoculation.

In turn, `CCC(C)(NC(=O)c1ccc2nc(C)oc2c1)C(=O)CCl` (stereo not shown) [Compound 2, N-(3-chloro-1-ethyl-1-methyl-2-oxopropyl)-2-methylbenzoxazole-6-carboxamide] registered an inhibition at 100 ppm with Pythium ultimum of 92.2%. In addition, the “GDM (percent disease control)” value in the test on Plasmopara viticola is 100%. Moreover, the “TLB (percent disease control)” value in the test on Phytophthora infestans was determined as 90%.

Take `CCC(C)(NC(=O)c1ccc2c(c1)NC(=O)CO2)C(=O)CCl` (stereo not shown) [Compound 11, N-(3-chloro-1-ethyl-1-methyl-2-oxopropyl)-1,4-benzoxazine-3-one-6-carboxamide]: the inhibition at 100 ppm with Pythium ultimum stood at 34.3%. In the test with Plasmopara viticola, the “GDM (percent disease control)” value is given as 0%. Besides, the “TLB (percent disease control)” value with Phytophthora infestans turned out to be 95%.

Turning to `CCC(C)(NC(=O)c1ccc2c(c1)NC(=O)CO2)C(=O)C(Cl)Cl` (stereo not shown) [Compound 13, N-(3,3-dichloro-1-ethyl-1-methyl-2-oxopropyl)-1,4-benzoxazine-3-one-6-carboxamide], in the test with Pythium ultimum, 100 ppm produced 60.8% inhibition.

The values are drawn from EP1229027A1 (priority 1996, dated 1998).
